Laboratory results as given in article PMC11887051, “Discovery of ONO-2920632 (VU6011887): A Highly Selective and CNS Penetrant TREK-2 (TWIK-Related K+ Channel 2) Preferring Activator In Vivo Tool Compound” (ACS Chemical Neuroscience, 2025).

Assays:
TREK-1 [1] = target: T1, TREK-1 (Homo sapiens, UniProt O95069); set-up: method as in PMID 31072652; settings: previously reported; cited from earlier work
T1 sequence (O95069 1-426): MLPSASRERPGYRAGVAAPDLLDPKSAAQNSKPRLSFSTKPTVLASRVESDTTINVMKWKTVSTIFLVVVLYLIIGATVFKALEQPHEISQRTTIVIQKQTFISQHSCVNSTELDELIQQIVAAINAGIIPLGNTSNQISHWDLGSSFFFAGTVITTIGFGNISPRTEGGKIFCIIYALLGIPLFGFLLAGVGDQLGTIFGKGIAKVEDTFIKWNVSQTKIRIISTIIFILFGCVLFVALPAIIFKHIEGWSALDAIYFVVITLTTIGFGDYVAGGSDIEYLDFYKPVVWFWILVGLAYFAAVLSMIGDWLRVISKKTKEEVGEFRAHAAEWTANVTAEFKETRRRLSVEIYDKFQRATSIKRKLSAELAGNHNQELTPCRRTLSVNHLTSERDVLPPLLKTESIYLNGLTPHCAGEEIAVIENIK

TREK-2 [2] = target: T2, TREK-2 (Homo sapiens, UniProt P57789); set-up: method as in PMID 31072652; settings: previously reported; cited from earlier work
T2 sequence (P57789 1-538): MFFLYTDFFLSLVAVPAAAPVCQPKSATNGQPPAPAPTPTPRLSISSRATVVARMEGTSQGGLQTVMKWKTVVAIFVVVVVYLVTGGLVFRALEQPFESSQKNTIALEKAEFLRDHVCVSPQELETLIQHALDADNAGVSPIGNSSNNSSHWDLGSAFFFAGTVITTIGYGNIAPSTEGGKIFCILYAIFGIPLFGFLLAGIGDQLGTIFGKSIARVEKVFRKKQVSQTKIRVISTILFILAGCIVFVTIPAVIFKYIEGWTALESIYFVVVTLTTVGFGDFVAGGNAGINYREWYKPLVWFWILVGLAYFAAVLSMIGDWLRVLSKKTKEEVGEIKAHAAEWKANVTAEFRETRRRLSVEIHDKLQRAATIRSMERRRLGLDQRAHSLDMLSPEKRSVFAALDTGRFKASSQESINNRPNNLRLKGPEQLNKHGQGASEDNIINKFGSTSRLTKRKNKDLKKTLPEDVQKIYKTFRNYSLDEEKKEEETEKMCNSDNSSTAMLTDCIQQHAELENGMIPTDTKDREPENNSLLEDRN

[3] = set-up: method as in PMID 31072652; settings: previously reported; cited from earlier work
[4] = set-up: method as in PMID 31072652; settings: previously reported; cited from earlier work; remark: listed apart in the source
TREK-1 [5] = target: T1, TREK-1; assay: TREK-1 thallium flux assay (hTREK-1/CHO); format: cell-based; set-up: host or cells: CHO; settings: for Emax: % activation relative to 10 µM BL-1249
Procedure: (§1) Procedures for Biological Experiments
TREK-1 and TREK-2 thallium flux assay protocol
CHO cells stably expressing human TREK-1 (hTREK-1/CHO) were constructed at Evotec. […]
(§2) hTREK-1/CHO or hTREK-2/HEK were plated in 384-well plates at a density of 1.0x10^4 cells/well or 2.0x10^4 cells/well, respectively, and cultured overnight. After the wash by HBSS + 20 mM HEPES buffer, cells were loaded with Thallos dye for 1 hour at room temperature. After the wash […]
(§3) dissolved with HBSS + 20mM HEPES buffer were added to each well. After 10 minutes incubation at room temperature, thallium stimulus buffer were added to each well and the fluorescent intensity are measured by Panoptic. The final thallium concentration was 0.36 mM in […]
(§4) TREK-1 or 0.24 mM in TREK-2, respectively. […]

TREK-2 [6] = target: T2, TREK-2; assay: TREK-2 thallium flux assay (hTREK-2/HEK); format: cell-based; set-up: expressed in transfected cells; host or cells: HEK293; settings: for Emax: % activation relative to 10 µM BL-1249
Procedure: as §1
TREK-1 and TREK-2 thallium flux assay protocol […]
as §2, with “HEK293 cells stably expressing human TREK-2 (hTREK-2/HEK) were constructed at Ono. hTREK-1/CHO” for “hTREK-1/CHO”
as §3, §4

mouse TREK-1 = target: T3, mouse TREK-1 (Mus musculus, UniProt P97438); assay: mouse TREK-1 MPC assay; format: cell-based; settings: manual patch clamp
T3 sequence (P97438 1-426): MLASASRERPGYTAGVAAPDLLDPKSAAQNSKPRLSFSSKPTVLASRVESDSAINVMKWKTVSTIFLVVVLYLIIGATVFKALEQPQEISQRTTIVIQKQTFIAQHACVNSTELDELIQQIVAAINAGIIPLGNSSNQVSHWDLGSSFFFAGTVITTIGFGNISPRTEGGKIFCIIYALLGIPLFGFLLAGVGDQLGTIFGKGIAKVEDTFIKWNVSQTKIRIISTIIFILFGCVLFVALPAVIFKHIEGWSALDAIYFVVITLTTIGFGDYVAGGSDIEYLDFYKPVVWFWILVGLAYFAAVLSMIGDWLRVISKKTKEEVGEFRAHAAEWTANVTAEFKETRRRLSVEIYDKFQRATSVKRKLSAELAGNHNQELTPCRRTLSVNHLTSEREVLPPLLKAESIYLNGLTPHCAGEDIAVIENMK

mouse TREK-2 = target: T4, mouse TREK-2 (Mus musculus, UniProt Q8BUW1); assay: mouse TREK-2 MPC assay; format: cell-based; settings: mouse, manual patch clamp
T4 sequence (Q8BUW1 1-535): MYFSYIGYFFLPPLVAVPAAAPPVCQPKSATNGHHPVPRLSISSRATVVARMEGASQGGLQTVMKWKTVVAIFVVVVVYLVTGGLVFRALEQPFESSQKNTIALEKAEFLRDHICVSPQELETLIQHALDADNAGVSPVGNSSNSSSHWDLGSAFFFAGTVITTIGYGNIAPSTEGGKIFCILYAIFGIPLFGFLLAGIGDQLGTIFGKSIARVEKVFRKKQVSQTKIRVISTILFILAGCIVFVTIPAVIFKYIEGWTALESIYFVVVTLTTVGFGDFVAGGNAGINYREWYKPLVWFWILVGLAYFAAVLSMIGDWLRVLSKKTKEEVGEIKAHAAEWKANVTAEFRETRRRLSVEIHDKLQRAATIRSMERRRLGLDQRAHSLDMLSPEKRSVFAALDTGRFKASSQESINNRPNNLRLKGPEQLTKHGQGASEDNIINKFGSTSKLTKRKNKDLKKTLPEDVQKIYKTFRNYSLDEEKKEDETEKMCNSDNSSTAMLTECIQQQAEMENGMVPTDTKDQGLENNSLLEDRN

TREK-2 [7] = target: T2, TREK-2; assay: human 86Rb flux K2P selectivity panel; format: cell-based; settings: data is not shown
TREK-1 [8] = target: T1, TREK-1; assay: human 86Rb flux K2P selectivity panel; format: cell-based; settings: data is not shown
TASK-1 = assay: human 86Rb flux K2P selectivity panel; format: cell-based; settings: 86Rb flux K2P panel
TASK-2 = assay: human 86Rb flux K2P selectivity panel; format: cell-based; settings: 86Rb flux K2P panel
TASK-3 = assay: human 86Rb flux K2P selectivity panel; format: cell-based; settings: 86Rb flux K2P panel
TRAAK = assay: human 86Rb flux K2P selectivity panel; format: cell-based; settings: 86Rb flux K2P panel
TWIK-2 = assay: human 86Rb flux K2P selectivity panel; format: cell-based; settings: 86Rb flux K2P panel
TRESK = target: T5, TRESK (Homo sapiens, UniProt Q7Z418); assay: human 86Rb flux K2P selectivity panel; format: cell-based; settings: 86Rb flux K2P panel
T5 sequence (Q7Z418 1-384): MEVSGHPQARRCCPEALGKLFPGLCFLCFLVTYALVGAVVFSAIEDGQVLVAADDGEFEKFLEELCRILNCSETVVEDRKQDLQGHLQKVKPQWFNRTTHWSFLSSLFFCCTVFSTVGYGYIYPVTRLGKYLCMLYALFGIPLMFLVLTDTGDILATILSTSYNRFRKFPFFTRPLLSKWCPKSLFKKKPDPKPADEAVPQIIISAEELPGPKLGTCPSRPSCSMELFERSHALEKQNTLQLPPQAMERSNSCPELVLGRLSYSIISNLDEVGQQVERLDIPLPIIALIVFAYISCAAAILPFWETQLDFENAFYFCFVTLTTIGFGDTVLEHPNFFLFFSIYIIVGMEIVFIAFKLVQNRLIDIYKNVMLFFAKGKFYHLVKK

[9] = control compound, table footnote

| Structure (SMILES) | TREK-1 Emax (TREK-1 [1]) | TREK-2 Emax (TREK-2 [2]) | rat CLhep (predicted hepatic clearance) [3] | rat plasma fu [4] | EC50 (TREK-1 [5]) | Emax (TREK-1 [5]) | EC50 (TREK-2 [6]) | Emax (TREK-2 [6]) | also measured |
| --- | --- | --- | --- | --- | --- | --- | --- | --- | --- |
| c1ccc(-c2nnn[nH]2)c(Nc2cccc3c2CCCC3)c1 [BL-1249, (5,6,7,8-tetrahydro-naphthalen-1-yl)-[2-(1H-tetrazol-5-yl)-phenyl]-amine, reference compound] | 109 ± 14% | 133 ± 23% | > 50.9 mL/min/kg | < 0.001 |  |  |  |  | IC50 (TREK-1 [5]; [9]): 5.2 µM; IC50 (TREK-2 [6]; [9]): 7.3 µM |
| O=C(Nc1cc(F)c(Br)cc1C(=O)O)c1ccc(SC(F)(F)F)cc1 [Compound 8] | 101% | 84% | 35.5 mL/min/kg | 0.041 |  |  |  |  |  |
| COc1cc(OC(F)(F)F)ccc1CNC(=O)c1ccc(-n2cncn2)nc1 [Compound 14b] |  |  |  |  | 1500 nM | 42% | 410 nM | 158% | Fold TREK-2 (TREK-2 [6]; TREK-2 preference over TREK-1, thallium flux): 3.7 fold |
| Cc1cc(OC(F)(F)F)ccc1CNC(=O)c1ccc(-n2cncn2)nc1 [Compound 14c] |  |  |  |  | ~1100 nM | 20% | 360 nM | 109% | EC50 (mouse TREK-1): 2800 nM; Emax (mouse TREK-1): 31%; EC50 (mouse TREK-2): 310 nM; Emax (mouse TREK-2): 72%; activity at TREK-2 in 86Rb flux panel (TREK-2 [7]): submicromolar TREK-2 activator; activity at TREK-1 in 86Rb flux panel (TREK-1 [8]): partial TREK-1 activator; selectivity against TASK-1 over TREK-2 (TASK-1): > 43 fold; selectivity against TASK-2 over TREK-2 (TASK-2): > 43 fold; selectivity against TASK-3 over TREK-2 (TASK-3): > 43 fold; selectivity against TRAAK over TREK-2 (TRAAK): > 43 fold; selectivity against TWIK-2 over TREK-2 (TWIK-2): > 43 fold; selectivity against TRESK over TREK-2 (TRESK): > 43 fold |
